ChEMBL document CHEMBL1201862, “PubChem BioAssay data set” (2004)
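Interpolation was linear, between the two tested concentrations surrounding the appropriate level; five concentrations were tested over 48 hours in 96-well plates. GI50 marks 50% less growth.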 Active and inactive are the calls of the source. No stated cut-off is given here; in the data, active = GI50 up to about 1.1 µM and inactive = higher.

Assays:
Test in all cases: NCI-60 cell line screen, 48 h
786-0 = test system: 786-0
A498 = test system: A498
A549 = test system: A549
ACHN = test system: ACHN
BT-549 = test system: BT-549
CAKI-1 = test system: CAKI-1
CCRF-CEM = test system: CCRF-CEM
COLO 205 = test system: COLO 205
DU-145 = test system: DU-145
EKVX = test system: EKVX
HCC 2998 = test system: HCC 2998
HCT-116 = test system: HCT-116
HCT-15 = test system: HCT-15
HL-60 = test system: HL-60
HOP-92 = test system: HOP-92
HT-29 = test system: HT-29
Hs-578T = test system: Hs-578T
IGROV-1 = test system: IGROV-1
K562 = test system: K562
KM12 = test system: KM12
LOX IMVI = test system: LOX IMVI
M14 = test system: M14
MCF7 = test system: MCF7
MDA-MB-231 = test system: MDA-MB-231
MDA-MB-435 = test system: MDA-MB-435
MDA-N = test system: MDA-N
Malme-3M = test system: Malme-3M
NCI-H226 = test system: NCI-H226
NCI-H23 = test system: NCI-H23
NCI-H460 = test system: NCI-H460
NCI-H522 = test system: NCI-H522
NCI/ADR-RES = test system: NCI/ADR-RES
OVCAR-4 = test system: OVCAR-4
OVCAR-5 = test system: OVCAR-5
OVCAR-8 = test system: OVCAR-8
PC-3 = test system: PC-3
SF-268 = test system: SF-268
SF-295 = test system: SF-295
SF-539 = test system: SF-539
SK-MEL-28 = test system: SK-MEL-28
SK-MEL-2 = test system: SK-MEL-2
SK-MEL-5 = test system: SK-MEL-5
SK-OV-3 = test system: SK-OV-3
SN12C = test system: SN12C
SNB-19 = test system: SNB-19
SNB-75 = test system: SNB-75
SR = test system: SR
SW-620 = test system: SW-620
T47D = test system: T47D
TK-10 = test system: TK-10
U-251 = test system: U-251
UACC-257 = test system: UACC-257
UACC-62 = test system: UACC-62
UO-31 = test system: UO-31
HOP-62 = test system: HOP-62
MOLT-4 = test system: MOLT-4
OVCAR-3 = test system: OVCAR-3
RPMI-8226 = test system: RPMI-8226
RXF 393 = test system: RXF 393

SMILES: CCN1CC2(COC)C(O)CC(OC)C34C5CC6(O)C(OC)C=C(C5C6OC(=O)c5ccc(OC)c(OC)c5)C(C(OC)C23)C14 (stereo unspecified)
- GI50 (786-0): > 7.5 µM (inactive)
- GI50 (A498): > 7.5 µM (inactive)
- GI50 (A549): > 7.5 µM (inactive)
- GI50 (ACHN): > 7.5 µM (inactive)
- GI50 (BT-549): > 7.5 µM (inactive)
- GI50 (CAKI-1): > 7.5 µM (inactive)
- GI50 (CCRF-CEM): > 7.5 µM (inactive)
- GI50 (COLO 205): > 7.5 µM (inactive)
- GI50 (DU-145): > 7.5 µM (inactive)
- GI50 (EKVX): > 7.5 µM (inactive)
- GI50 (HCC 2998): > 7.5 µM (inactive)
- GI50 (HCT-116): > 7.5 µM (inactive)
- GI50 (HCT-15): > 7.5 µM
- GI50 (HL-60): > 7.5 µM (inactive)
- GI50 (HOP-92): > 7.5 µM (inactive)
- GI50 (HT-29): > 7.5 µM (inactive)
- GI50 (Hs-578T): > 7.5 µM (inactive)
- GI50 (IGROV-1): > 7.5 µM (inactive)
- GI50 (K562): > 7.5 µM (inactive)
- GI50 (KM12): > 7.5 µM (inactive)
- GI50 (LOX IMVI): > 7.5 µM (inactive)
- GI50 (M14): > 7.5 µM (inactive)
- GI50 (MCF7): > 7.5 µM (inactive)
- GI50 (MDA-MB-231): > 7.5 µM (inactive)
- GI50 (MDA-MB-435): > 7.5 µM (inactive)
- GI50 (MDA-N): > 7.5 µM (inactive)
- GI50 (Malme-3M): > 7.5 µM (inactive)
- GI50 (NCI-H226): > 7.5 µM (inactive)
- GI50 (NCI-H23): > 7.5 µM (inactive)
- GI50 (NCI-H460): > 7.5 µM (inactive)
- GI50 (NCI-H522): > 7.5 µM (inactive)
- GI50 (NCI/ADR-RES): > 7.5 µM (inactive)
- GI50 (OVCAR-4): > 7.5 µM (inactive)
- GI50 (OVCAR-5): > 7.5 µM (inactive)
- GI50 (OVCAR-8): > 7.5 µM (inactive)
- GI50 (PC-3): > 7.5 µM (inactive)
- GI50 (SF-268): > 7.5 µM (inactive)
- GI50 (SF-295): > 7.5 µM (inactive)
- GI50 (SF-539): > 7.5 µM (inactive)
- GI50 (SK-MEL-28): > 7.5 µM (inactive)
- GI50 (SK-MEL-2): > 7.5 µM (inactive)
- GI50 (SK-MEL-5): > 7.5 µM (inactive)
- GI50 (SK-OV-3): > 7.5 µM (inactive)
- GI50 (SN12C): > 7.5 µM (inactive)
- GI50 (SNB-19): > 7.5 µM (inactive)
- GI50 (SNB-75): 4.51 µM (inactive)
- GI50 (SR): > 7.5 µM (inactive)
- GI50 (SW-620): > 7.5 µM (inactive)
- GI50 (T47D): > 7.5 µM (inactive)
- GI50 (TK-10): > 7.5 µM (inactive)
- GI50 (U-251): > 7.5 µM (inactive)
- GI50 (UACC-257): > 7.5 µM (inactive)
- GI50 (UACC-62): > 7.5 µM (inactive)
- GI50 (UO-31): > 7.5 µM (inactive)

SMILES: CCC1c2[nH]c3ccccc3c2C[C@H]2C(=O)NC(Cc3ccccc3)C(=O)N12 (stereo partly specified)
- GI50 (786-0): 36 µM (inactive)
- GI50 (A498): 38.5 µM (inactive)
- GI50 (A549): 30.1 µM (inactive)
- GI50 (ACHN): 30.5 µM (inactive)
- GI50 (BT-549): 22.4 µM (inactive)
- GI50 (CAKI-1): 35.4 µM (inactive)
- GI50 (COLO 205): 20.6 µM (inactive)
- GI50 (DU-145): 40 µM (inactive)
- GI50 (EKVX): 30.3 µM (inactive)
- GI50 (HCC 2998): 26 µM (inactive)
- GI50 (HCT-116): 24.7 µM (inactive)
- GI50 (HCT-15): 35 µM
- GI50 (HL-60): 20.7 µM (inactive)
- GI50 (HOP-62): 34.8 µM (inactive)
- GI50 (HOP-92): 34.2 µM (inactive)
- GI50 (HT-29): 23.5 µM (inactive)
- GI50 (Hs-578T): 12.4 µM (inactive)
- GI50 (IGROV-1): 28.8 µM (inactive)
- GI50 (K562): 31.4 µM (inactive)
- GI50 (KM12): 24.8 µM (inactive)
- GI50 (LOX IMVI): 22.1 µM (inactive)
- GI50 (M14): 27.9 µM (inactive)
- GI50 (MCF7): 34.9 µM (inactive)
- GI50 (MDA-MB-231): 21 µM (inactive)
- GI50 (MDA-MB-435): 20.2 µM (inactive)
- GI50 (MDA-N): 25.8 µM (inactive)
- GI50 (MOLT-4): 21.4 µM (inactive)
- GI50 (Malme-3M): 19.7 µM (inactive)
- GI50 (NCI-H226): 28.4 µM (inactive)
- GI50 (NCI-H23): 37.1 µM (inactive)
- GI50 (NCI-H522): 22.9 µM (inactive)
- GI50 (NCI/ADR-RES): 29.8 µM (inactive)
- GI50 (OVCAR-3): 31 µM (inactive)
- GI50 (OVCAR-4): 33.6 µM (inactive)
- GI50 (OVCAR-5): 25.2 µM (inactive)
- GI50 (OVCAR-8): 34.5 µM (inactive)
- GI50 (PC-3): 20.8 µM (inactive)
- GI50 (RPMI-8226): 20.2 µM (inactive)
- GI50 (RXF 393): 22.1 µM (inactive)
- GI50 (SF-268): 27.2 µM (inactive)
- GI50 (SF-295): 24.4 µM (inactive)
- GI50 (SK-MEL-28): 40 µM (inactive)
- GI50 (SK-MEL-2): 20.9 µM (inactive)
- GI50 (SK-MEL-5): 19.9 µM (inactive)
- GI50 (SK-OV-3): 44.7 µM (inactive)
- GI50 (SN12C): 28.5 µM (inactive)
- GI50 (SNB-19): 34.9 µM (inactive)
- GI50 (SR): 21.2 µM (inactive)
- GI50 (SW-620): 35.6 µM (inactive)
- GI50 (T47D): 22 µM (inactive)
- GI50 (TK-10): 23.7 µM (inactive)
- GI50 (U-251): 22.8 µM (inactive)
- GI50 (UACC-257): 18 µM (inactive)
- GI50 (UACC-62): 17.2 µM (inactive)
- GI50 (UO-31): 30.8 µM (inactive)

SMILES: O=C(COC(=O)c1ccccc1)c1ccc(Br)cc1
- GI50 (786-0): 2.41 µM (inactive)
- GI50 (A498): 15.8 µM (inactive)
- GI50 (A549): 17.2 µM (inactive)
- GI50 (ACHN): 19.9 µM (inactive)
- GI50 (BT-549): 6.14 µM (inactive)
- GI50 (CAKI-1): 1.47 µM (inactive)
- GI50 (CCRF-CEM): 4.04 µM (inactive)
- GI50 (COLO 205): 13.6 µM (inactive)
- GI50 (DU-145): 19.5 µM (inactive)
- GI50 (EKVX): 14.7 µM (inactive)
- GI50 (HCC 2998): 13.3 µM (inactive)
- GI50 (HCT-116): 8.95 µM (inactive)
- GI50 (HCT-15): 3.35 µM
- GI50 (HL-60): 6.64 µM (inactive)
- GI50 (HOP-62): 18.5 µM (inactive)
- GI50 (HOP-92): 14.6 µM (inactive)
- GI50 (HT-29): 15.6 µM (inactive)
- GI50 (Hs-578T): 14.3 µM (inactive)
- GI50 (IGROV-1): 1 µM (active)
- GI50 (K562): 4.4 µM (inactive)
- GI50 (KM12): 15.7 µM (inactive)
- GI50 (LOX IMVI): 3.06 µM (inactive)
- GI50 (M14): 14.5 µM (inactive)
- GI50 (MCF7): 5.53 µM (inactive)
- GI50 (MDA-MB-231): 14.3 µM (inactive)
- GI50 (MDA-MB-435): 6.78 µM (inactive)
- GI50 (MDA-N): 4.71 µM (inactive)
- GI50 (MOLT-4): 3.29 µM (inactive)
- GI50 (Malme-3M): 12.2 µM (inactive)
- GI50 (NCI-H23): 18.3 µM (inactive)
- GI50 (NCI-H460): 18.5 µM (inactive)
- GI50 (NCI-H522): 1.63 µM (inactive)
- GI50 (NCI/ADR-RES): 21 µM (inactive)
- GI50 (OVCAR-3): 12.9 µM (inactive)
- GI50 (OVCAR-5): 10.7 µM (inactive)
- GI50 (OVCAR-8): 12.5 µM (inactive)
- GI50 (PC-3): 16.3 µM (inactive)
- GI50 (RPMI-8226): 3.39 µM (inactive)
- GI50 (RXF 393): 2.75 µM (inactive)
- GI50 (SF-268): 19.6 µM (inactive)
- GI50 (SF-295): 15.8 µM (inactive)
- GI50 (SF-539): 15.1 µM (inactive)
- GI50 (SK-MEL-28): 16.9 µM (inactive)
- GI50 (SK-MEL-2): 12.2 µM (inactive)
- GI50 (SK-MEL-5): 14.5 µM (inactive)
- GI50 (SK-OV-3): 19.1 µM (inactive)
- GI50 (SN12C): 10.4 µM (inactive)
- GI50 (SNB-19): 16.9 µM (inactive)
- GI50 (SNB-75): 16.4 µM (inactive)
- GI50 (SR): 2.15 µM (inactive)
- GI50 (SW-620): 6 µM (inactive)
- GI50 (T47D): 9.06 µM (inactive)
- GI50 (TK-10): 2.58 µM (inactive)
- GI50 (U-251): 11 µM (inactive)
- GI50 (UACC-257): 15.5 µM (inactive)
- GI50 (UACC-62): 13 µM (inactive)
- GI50 (UO-31): 1.89 µM (inactive)
